Experiments:
[1] = molecular target: T1, PD-1/PD-L1 interaction (Homo sapiens, UniProt Q9NZQ7); assay: PD-1/PD-L1 NFAT reporter co-culture assay; type: cell-based; settings: Jurkat PD-1 NFAT-luciferase cells co-cultured with aAPC-PD-L1 CHO cells, 6 hrs at 37° C.; read-out: EC50 NFAT Luciferase
T1 construct: expressed in transfected cells; host or cells: CHO cells (aAPC-PD-L1) co-cultured with Jurkat cells overexpressing PD-1 and an NFAT-luciferase reporter
Summary of the method: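 Jurkat cells overexpressing PD-1 with NFAT-driven luciferase were mixed with compound in RPMI 1640/2% FBS and seeded onto overnight-plated CHO aAPC-PD-L1 cells expressing surface anti-CD3 and PD-L1. Co-culture ran 6 h at 37 °C; luminescence read with ONE-Glo; EC50 from four-parameter fit.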

[2] = molecular target: T2, PD-L1 (Homo sapiens, UniProt Q9NZQ7); assay: PD-L1/PD-L1 dimerization biochemical protein-protein interaction assay (ALPHA); type: binding; settings: compound-induced PD-L1 dimerization, head prints '1 nM' (0.5 nM His-tagged PD-L1 and 0.5 nM FLAG-tagged PD-L1), read-out: AC50 PDL1 Dimer Alpha 1 nM
T2 construct: determine if they can specifically dimerize the extracellular domains of PD-L1
T2 sequence (Q9NZQ7 19-238 limits assumed): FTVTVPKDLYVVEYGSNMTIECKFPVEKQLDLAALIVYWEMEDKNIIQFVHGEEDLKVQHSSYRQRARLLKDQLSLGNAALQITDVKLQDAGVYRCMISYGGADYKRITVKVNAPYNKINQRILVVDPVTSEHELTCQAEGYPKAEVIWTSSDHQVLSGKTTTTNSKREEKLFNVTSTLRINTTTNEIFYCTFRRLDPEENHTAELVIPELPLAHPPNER
T2 sequence (Q9NZQ7 19-238 limits assumed): as above
Summary of the method: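 After 2 h at 25 °C with compound, His- and FLAG-tagged PD-L1 ECDs (each 0.5 nM final; 25 mM Hepes pH 7.4, 150 mM NaCl) were detected by sequential anti-His acceptor and anti-FLAG donor bead incubations. Dose-response curves fitted to four-parameter equation for AC50.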

[3] = molecular target: PD-1/PD-L1 (Homo sapiens, UniProt Q9NZQ7); assay: PD-1/PD-L1 biochemical protein-protein interaction assay (ALPHA); type: binding; settings: 0.3 nM His tagged PD-L1, 2.5 nM biotinylated Fc-PD-1, 60 minutes at 25° C., read-out: IC50 PD-L1-PD-1 Alpha IC50-mono PD-L1-fcP-D1
Chain of PD-1/PD-L1 (Q9NZQ7 19-238 limits assumed): as above
Summary of the method: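 Bead proximity read-out: compound-driven loss of ALPHA signal between anti-His acceptor and streptavidin donor beads (20 μg/mL acceptor). Proteins: 0.3 nM His-PD-L1, 2.5 nM biotin-Fc-PD-1, final. 60 min, 25° C, Hepes pH 7.4 buffer. IC50 via four-parameter dose-response fit.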

T1 sequence (Q9NZQ7 19-290): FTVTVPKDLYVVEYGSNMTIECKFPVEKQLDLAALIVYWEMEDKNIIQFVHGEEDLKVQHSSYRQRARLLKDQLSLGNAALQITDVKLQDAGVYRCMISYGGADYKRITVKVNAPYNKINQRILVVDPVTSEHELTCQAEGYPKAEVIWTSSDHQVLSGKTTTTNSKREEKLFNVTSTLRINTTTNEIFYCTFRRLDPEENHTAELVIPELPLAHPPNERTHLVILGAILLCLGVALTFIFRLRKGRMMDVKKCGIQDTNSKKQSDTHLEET

Row | Compound | EC50 [1] [nM] | AC50 [2] [nM] | IC50 [3] [nM]
1 | COc1nc(-c2cccc(-c3cccc(-c4ccn5cc(CNC[C@@H]6CCC(=O)N6)nc5c4)c3Cl)c2Cl)ccc1CNC[C@@H]1CCC(=O)N1 [Example 619] | 187 | 118 | 0.159
2 | COc1nc(-c2cccc(-c3cccc(-c4ccc5ncc(CNC[C@@H]6CCC(=O)N6)n5c4)c3Cl)c2Cl)ccc1CNC[C@@H]1CCC(=O)N1 [Example 622] | ≥ 50000 | ≥ 10000 | 0.567
3 | COc1cc(-c2cccc(-c3cccc(COc4cc(OCc5cncc(C#N)c5)c(CN[C@@](C)(CO)C(=O)O)cc4Cl)c3C)c2C)ccc1CNCC1CCC(=O)N1 (stereo partly drawn) [Example 508] | 156 | 78 | 0.084
4 | Cc1c(COc2cc(OCc3cncc(C#N)c3)c(CNC[C@@H](O)CC(=O)O)cc2Cl)cccc1-c1cccc(-c2ccc3c(c2)c(C)nn3CCNC[C@@H](O)CC(=O)O)c1C [Example 347, (S)-4-((4-((3′-(1-(2-(((S)-3-carboxy-2-hydroxypropyl)amino)ethyl)-3-methyl-1H-indazol-5-yl)-2,2′-dimethyl-[1,1′-biphenyl]-3-yl)methoxy)-5-chloro-2-((5-cyanopyridin-3-yl)methoxy)benzyl)amino)-3-hydroxybutanoic acid] | 142 | 125 | 0.211
5 | COc1nc(O[C@H]2CCc3c(-c4cccc(-c5cnc6c(CNC[C@@H]7CCC(=O)N7)cn(C)c6n5)c4Cl)cccc32)c(Cl)cc1CN1CC(C(=O)O)C1 [Example 529] | 165 | 56.2 | 0.064
6 | COc1nc(O[C@H]2CCc3c(-c4cccc(-c5nc6cc(CNCCO)ccn6n5)c4Cl)cccc32)c(Cl)cc1CNCCO [Example 638, (S)-2-(((2-(2-chloro-3-(1-((3-chloro-5-(((2-hydroxyethyl)amino)methyl)-6-methoxypyridin-2-yl)oxy)-2,3-dihydro-1H-inden-4-yl)phenyl)-[1,2,4]triazolo[1,5-a]pyridin-7-yl)methyl)amino)ethan-1-ol] | 429 | 23.8 | 0.064
7 | COc1nc(-c2cccc(-c3cccc(OCc4ccc(CNC[C@@H]5CCC(=O)N5)cc4)c3Cl)c2Cl)ccc1CNC[C@@H]1CCC(=O)N1 [Example 426] | 634 | 408 | 0.397
8 | COc1nc(-c2cccc(-c3cccc(-c4ccc5c(c4)C[C@@H](N)C5)c3Cl)c2Cl)ccc1C1=NCCN1 [Example 625] | ≥ 50000 | 98.2 | 0.238
9 | COc1nc(C(=O)Nc2cccc(-c3cccc(-c4ccc(CNC[C@@H]5CCC(=O)N5)c(OC)n4)c3Cl)c2Cl)ccc1CNC[C@@H]1CCC(=O)N1 [Example 429] | 680 | 240 | 0.14
10 | COc1nc(Oc2cccc(-c3cccc(-c4ccc(CNC[C@@H]5CCC(=O)N5)c(OC)n4)c3Cl)c2Cl)ccc1CNC[C@@H]1CCC(=O)N1 [Example 428] | 282 | 525 | 1.37
11 | COc1nc(-c2cccc(-c3cccc(-c4cnn(CCN)c4)c3Cl)c2Cl)ccc1CNC[C@@H]1CCC(=O)N1 [Example 596, (S)-5-((((6-(3′-(1-(2-aminoethyl)-1H-pyrazol-4-yl)-2,2′-dichloro-[1,1′-biphenyl]-3-yl)-2-methoxypyridin-3-yl)methyl)amino)methyl)pyrrolidin-2-one] | 169 | 415 | 0.671
12 | COc1cc(-c2cccc(-c3cccc(COc4nc(OC)c(CNC[C@@H]5CCC(=O)N5)cc4Br)c3Cl)c2Cl)ccc1CNC[C@@H]1CCC(=O)N1 [Example 542] | 197 | 136 | 1.24
13 | C[C@@](CO)(NCc1cc(Br)c(OCc2cccc(-c3cccc(-c4ccc5c(c4)C[C@@H](N)C5)c3Cl)c2Cl)nc1OCc1cncc(C#N)c1)C(=O)O [Example 554] | 148 | 39.5 | 0.15
14 | Cc1c(COc2cc(OCc3cncc(C#N)c3)c(CN3CCCC[C@H]3C(=O)O)cc2Cl)cccc1-c1cccc(-c2ccc(OCCNCCO)cc2)c1C [Example 344, (S)-1-(5-chloro-2-((5-cyanopyridin-3-yl)methoxy)-4-((4″-(2-((2-hydroxyethyl)amino)ethoxy)-2,2′-dimethyl-[1,1′:3′,1″-terphenyl]-3-yl)methoxy)benzyl)piperidine-2-carboxylic acid] | 475 | 55 | 0.064
15 | Cc1c(COc2cc(OCc3cncc(C#N)c3)c(CN3CC[C@@H](O)C3)cc2Cl)cccc1-c1cccc(-c2ccc3c(c2)CCC3N2CC[C@@H](C(=O)O)C2)c1C (stereo partly drawn) [Example 370, (3R)-1-(5-(3′-((2-chloro-5-((5-cyanopyridin-3-yl)methoxy)-4-(((R)-3-hydroxypyrrolidin-1-yl)methyl)phenoxy)methyl)-2,2′-dimethyl-[1,1′-biphenyl]-3-yl)-2,3-dihydro-1H-inden-1-yl)pyrrolidine-3-carboxylic acid] | 577 | 81.4 | 0.139
16 | Cc1c(COc2cc(OCc3cncc(C#N)c3)c(CNC[C@@H](O)CC(=O)O)cc2Cl)cccc1-c1cccc(-c2ccc3c(c2)CCC3N(C)C)c1C (stereo partly drawn) [Example 381, (3S)-4-((5-chloro-2-((5-cyanopyridin-3-yl)methoxy)-4-((3′-(1-(dimethylamino)-2,3-dihydro-1H-inden-5-yl)-2,2′-dimethyl-[1,1′-biphenyl]-3-yl)methoxy)benzyl)amino)-3-hydroxybutanoic acid] | 219 | 144 | 0.158
17 | Cc1c(COc2cc(OCc3cncc(C#N)c3)c(CN[C@@](C)(CO)C(=O)O)cc2Cl)cccc1-c1cccc(-c2ccc(OCCNC[C@@H]3CCC(=O)N3)cc2)c1C [Example 517] | 154 | 91.7 | 0.064
18 | CC(=O)NCCNCc1ccc(-c2cccc(-c3cccc(COc4cc(OCc5cncc(C#N)c5)c(CN[C@@](C)(CO)C(=O)O)cc4Cl)c3C)c2C)cc1 [Example 362, (S)-2-((4-((4″-(((2-acetamidoethyl)amino)methyl)-2,2′-dimethyl-[1,1′:3′,1″-terphenyl]-3-yl)methoxy)-5-chloro-2-((5-cyanopyridin-3-yl)methoxy)benzyl)amino)-3-hydroxy-2-methylpropanoic acid] | 221 | 108 | 0.104

Continued, values first:

Row | EC50 [1] [nM] | AC50 [2] [nM] | IC50 [3] [nM] | Compound
19 | 23 | 31.9 | 0.064 | COc1nc(-c2cccc(-c3cccc4c3CC[C@@H]4Oc3nc(OC)c(CN4CCC[C@H](C(=O)O)[C@@H]4C)cc3Cl)c2Cl)ccc1CNC[C@@H]1CCC(=O)N1 [Example 764]
20 | 111 | 84.7 | 0.115 | Cc1c(COc2cc(OCc3cncc(C#N)c3)c(CN[C@@](C)(CO)C(=O)O)cc2Cl)cccc1-c1cccc(-c2cccc([C@@H](C)N)c2)c1C [Example 498]
21 | 10 | 11.3 | 0.064 | COc1nc(-c2cccc(-c3cccc4c3CC[C@@H]4Oc3nc(OC)c(CN4CCC(C)(C(=O)O)C4)cc3Cl)c2Cl)ccc1CNC[C@@H]1CCC(=O)N1 (stereo partly drawn) [Example 763]
22 | 43 | 22.1 | 0.064 | COc1nc(-c2cccc(-c3cccc4c3CC[C@@H]4Oc3nc(OCc4cncc(C#N)c4)c(CN[C@@](C)(CO)C(=O)O)cc3Cl)c2Br)ccc1CNC[C@@H]1CCC(=O)N1 [Example 700]
23 | 139 | 39.2 | 0.155 | Cc1c(-c2ccc(OCCNC[C@@H](O)CC(=O)O)cc2)cccc1-c1cccc2c1CC[C@@H]2Oc1nc(OCc2cccc(C#N)c2)c(CNC[C@@H](O)CC(=O)O)cc1Br [Example 755]
24 | 11 | 66.8 | 0.064 | COc1nc(-c2cccc(-c3cccc4c3CC[C@@H]4Oc3nc(OC)c(CN4CC[C@H](C(=O)O)C4)cc3Cl)c2Cl)ccc1CN1CC(CO)C1 [Example 704]
25 | 89 | 129 | 0.097 | COc1ccc(-c2cccc(-c3cccc(COc4cc(OCc5cncc(C#N)c5)c(CN[C@@](C)(CO)C(=O)O)cc4Cl)c3C)c2C)cc1CNCC1CCC(=O)N1 (stereo partly drawn) [Example 509]
26 | 84 | 23.1 | 0.396 | COc1nc(-c2cccc(-c3cccc(COc4nc(OCc5cncc(C#N)c5)c(CNCCO)cc4Br)c3Cl)c2Cl)ccc1C1=NCCN1 [Example 555]
27 | 26 | 25.6 | 0.064 | COc1nc(O[C@H]2CCc3c(-c4cccc(-c5cc(C)c(CNC[C@@H]6CCC(=O)N6)c(OC)n5)c4Cl)cccc32)c(Cl)cc1CN1CC[C@@](C)(C(=O)O)C1 [Example 488]
28 | 51 | 20.1 | 0.363 | C[C@](CO)(NCc1cc(Br)c(OCc2cccc(-c3cccc(-c4ccc5c(c4)C[C@@H](N)C5)c3Cl)c2Cl)nc1OCc1cncc(S(C)(=O)=O)c1)C(=O)O [Example 547]
29 | 15 | 17.6 | 0.064 | COc1nc(-c2cccc(-c3cccc4c3CC[C@@H]4Oc3nc(OC)c(CN4CC(C(=O)O)C4)cc3Cl)c2Cl)ccc1CNC[C@@H]1CCC(=O)N1 [Example 757]

From patent US12590062B2, “PD-1/PD-L1 inhibitors” (Gilead Sciences, Inc., priority 2017, dated 2026)
